# Experimental data published in ChEMBL document CHEMBL4418269, “Novel Quinoline-Hepcidine Antagonists” (2012).
# Target: T1, Hepcidin (Homo sapiens) (UniProt P81172)
# T1 sequence (whole entry): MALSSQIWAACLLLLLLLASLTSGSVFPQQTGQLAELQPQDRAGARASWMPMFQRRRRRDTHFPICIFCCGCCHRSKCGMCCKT
# Assay: Inhibition of human hepcidin-stimulated recombinant C-terminal Halo-tagged human FPN internalization in MDCK cells at 10 uM incubated for 15 to 20 mins by Halo-tagged TMR based fluorescence assay relative to control
# Assay type: cell-based
row,Structure (SMILES),inhibition [%]
1,Oc1c(C(c2ccc(Cl)cc2)N2CCOCC2)cc(Cl)c2cccnc12 (stereo unspecified),< 50
2,Oc1c(C(c2ccccn2)N2CCOCC2)ccc2cccnc12 (stereo unspecified),> 50
3,COc1cc(C(=O)Oc2c(CN3CCOCC3)cc(Cl)c3cccnc23)cc(OC)c1OC,< 50
4,Oc1c(C(Nc2ccccn2)c2cccnc2)cc(Cl)c2cccnc12 (stereo unspecified),< 50

# Other lines, results leading:
row,inhibition [%],Structure (SMILES)
1,< 50,O=C(Oc1c(CN2CCOCC2)cc(Cl)c2cccnc12)c1ccccc1
2,< 50,O=C(Oc1c(CN2CCOCC2)cc(Cl)c2cccnc12)c1ccco1
